Assay results: patent US20070128217A1 (priority 2003, published 2007)

Legend:
[1] = test system: antibodies in sera from SARS patients (sera 1a, 1b, 2, 6, 37, 62, London, SARS-yellow, SARS-green); format: binding, human; parameters: Binding of serum 6 to linear peptides of protein X1 of SARS-CoV Urbani / Binding of serum 37 to linear peptides of protein X1 of SARS-CoV Urbani / Binding of serum 6 to looped/cyclic peptide (PEPSCAN-ELISA) / Binding of serum 37 to looped/cyclic peptide (PEPSCAN-ELISA) / Binding of serum 37 to looped/cyclic peptides of protein X1 of SARS-CoV Urbani / Binding of serum 6 to linear peptides of protein X2 / Binding of serum 37 to linear peptides of protein X2 / Binding of serum 37 to looped/cyclic peptides of protein X2 of SARS-CoV Urbani / Binding of serum 6 to linear peptides of protein M of SARS-CoV Urbani / Binding of serum 37 to linear peptides of protein M of SARS-CoV Urbani / Binding of serum 6 to looped/cyclic peptides of protein M of SARS-CoV Urbani / Binding of serum 37 to looped/cyclic peptides of protein M of SARS-CoV Urbani / Binding of serum 6 to linear peptides of protein X3 of SARS-CoV Urbani / Binding of serum 37 to linear peptides of protein X3 of SARS-CoV Urbani / Binding of serum 37 to looped/cyclic peptides of protein X3 of SARS-CoV Urbani / Binding of serum 6 to linear peptides of protein X4 of SARS-CoV Urbani / Binding of serum 37 to linear peptides of protein X4 of SARS-CoV Urbani / Binding of serum 37 to looped/cyclic peptides of protein X4 of SARS-CoV Urbani / Binding of serum 6 to linear peptides of protein X5 of SARS-CoV Urbani / Binding of serum 37 to linear peptides of protein X5 of SARS-CoV Urbani / Binding of serum 37 to looped/cyclic peptides of protein X5 of SARS-CoV Urbani / Binding of serum 6 to linear peptides of protein N of SARS-CoV Urbani / Binding of serum 37 to linear peptides of protein N of SARS-CoV Urbani / Binding of serum 6 to linear peptide (PEPSCAN-ELISA) / Binding of serum 1a to looped/cyclic peptides of protein N of SARS-CoV Urbani / Binding of serum 1b to looped/cyclic peptides of protein N of SARS-CoV Urbani / Binding of serum 2 to looped/cyclic peptides of protein N of SARS-CoV Urbani / Binding of serum 6 to looped/cyclic peptides of protein N of SARS-CoV Urbani / Binding of serum 37 to looped/cyclic peptides of protein N of SARS-CoV Urbani / Binding of serum 62 to looped/cyclic peptides of protein N of SARS-CoV Urbani / Binding of serum London to looped/cyclic peptides of protein N of SARS-CoV Urbani / Binding of serum SARS-green to looped/cyclic peptides of protein N of SARS-CoV Urbani: unit not given here
[2] = test system: control sera (pooled serum of ten healthy LUMC hospital workers; commercial negative donor pooled serum from the Dutch bloodbank); format: binding, human; parameters: Binding of Control serum LUMC to linear peptides / Binding of Control serum Blood-bank to linear peptides / Binding of Control serum LUMC to looped peptides / Binding of Control Serum Blood-Bank to Looped peptides / Binding of Control serum LUMC to linear peptides of the protein M of SARS-CoV Urbani / Binding of Control serum Blood-bank to linear peptides of the protein M of SARS-CoV Urbani / Binding of Control serum LUMC to looped peptides of the protein M of SARS-CoV Urbani / Binding of Control Serum Blood-Bank to Looped peptides of the protein M of SARS-CoV Urbani: unit not given here
[3] = test system: rabbit serum obtained by immunizing a rabbit with the SARS-CoV strain Frankfurt 1; format: binding; parameters: Binding of a rabbit serum to linear peptides / Binding of a rabbit serum to looped peptides / Rabbit serum linear peptides / Rabbit serum looped peptides / Binding of a rabbit serum to linear peptides of protein N of SARS-CoV Urbani (Rabbit serum linear peptides) / Binding of a rabbit serum to looped/cyclic peptides of protein N of SARS-CoV Urbani (Rabbit serum looped peptides): unit not given here
[4] = test system: recombinant human anti-SARS-CoV antibody 03-018; format: binding; parameters: Binding of antibody 03-018 to linear peptides of the N protein of SARS-CoV Urbani / Binding of antibody 03-018 to looped/cyclic peptides of the N protein of SARS-CoV Urbani: unit not given here

Sequence: PKKDKKKKTDEAQPL
- Binding of serum 1a to linear peptides of protein N of SARS-CoV Urbani [1]: 0.2
- Binding of serum 1a to looped/cyclic peptides of protein N of SARS-CoV Urbani [1]: 0.2
- Binding of serum 1b to linear peptides of protein N of SARS-CoV Urbani [1]: 0.1
- Binding of serum 1b to looped/cyclic peptides of protein N of SARS-CoV Urbani [1]: 0.1
- Binding of serum 2 to linear peptides of protein N of SARS-CoV Urbani [1]: 2.5
- Binding of serum 2 to looped/cyclic peptides of protein N of SARS-CoV Urbani [1]: 0.2
- Binding of serum 6 to linear peptides of protein N of SARS-CoV Urbani [1]: 0.2
- Binding of serum 6 to looped/cyclic peptides of protein N of SARS-CoV Urbani [1]: 0.1
- Binding of serum 37 to linear peptides of protein N of SARS-CoV Urbani [1]: 0.7
- Binding of serum 37 to looped/cyclic peptides of protein N of SARS-CoV Urbani [1]: 0.4
- Binding of serum 62 to linear peptides of protein N of SARS-CoV Urbani [1]: 0.7
- Binding of serum 62 to looped/cyclic peptides of protein N of SARS-CoV Urbani [1]: 0.3
- Binding of serum London to linear peptides of protein N of SARS-CoV Urbani [1]: 0.5
- Binding of serum London to looped/cyclic peptides of protein N of SARS-CoV Urbani [1]: 0.3
- Binding of serum SARS-green to linear peptides of protein N of SARS-CoV Urbani [1]: 0.1
- Binding of serum SARS-green to looped/cyclic peptides of protein N of SARS-CoV Urbani [1]: 0.1
- Binding of serum SARS-yellow to linear peptides of protein N of SARS-CoV Urbani [1]: 0.5
- Binding of serum SARS-yellow to looped/cyclic peptides of protein N of SARS-CoV Urbani [1]: 0.2
- Control Serum Blood-Bank Looped peptides [2]: 0.4
- Control serum Blood-bank linear peptides [2]: 0.8
- Control serum LUMC linear peptides [2]: 0.8
- Control serum LUMC looped peptides [2]: 0.3
- Binding of a rabbit serum to linear peptides of protein N of SARS-CoV Urbani (Rabbit serum linear peptides) [3]: 0.1
- Binding of a rabbit serum to looped/cyclic peptides of protein N of SARS-CoV Urbani (Rabbit serum looped peptides) [3]: 0.0
- Binding of antibody 03-018 to linear peptides of the N protein of SARS-CoV Urbani [4]: 0.1
- Binding of antibody 03-018 to looped/cyclic peptides of the N protein of SARS-CoV Urbani [4]: 0.2

Sequence: ITFGGPTDSTDNNQN
- Binding of serum 1a to linear peptides of protein N of SARS-CoV Urbani [1]: 0.2
- Binding of serum 1a to looped/cyclic peptides of protein N of SARS-CoV Urbani [1]: 0.3
- Binding of serum 1b to linear peptides of protein N of SARS-CoV Urbani [1]: 0.1
- Binding of serum 1b to looped/cyclic peptides of protein N of SARS-CoV Urbani [1]: 0.2
- Binding of serum 2 to linear peptides of protein N of SARS-CoV Urbani [1]: 0.1
- Binding of serum 2 to looped/cyclic peptides of protein N of SARS-CoV Urbani [1]: 0.3
- Binding of serum 6 to linear peptides of protein N of SARS-CoV Urbani [1]: 0.1
- Binding of serum 6 to looped/cyclic peptides of protein N of SARS-CoV Urbani [1]: 0.2
- Binding of serum 37 to linear peptides of protein N of SARS-CoV Urbani [1]: 0.7
- Binding of serum 37 to looped/cyclic peptides of protein N of SARS-CoV Urbani [1]: 0.6
- Binding of serum 62 to linear peptides of protein N of SARS-CoV Urbani [1]: 0.6
- Binding of serum 62 to looped/cyclic peptides of protein N of SARS-CoV Urbani [1]: 0.5
- Binding of serum London to linear peptides of protein N of SARS-CoV Urbani [1]: 0.5
- Binding of serum London to looped/cyclic peptides of protein N of SARS-CoV Urbani [1]: 0.4
- Binding of serum SARS-green to linear peptides of protein N of SARS-CoV Urbani [1]: 0.3
- Binding of serum SARS-green to looped/cyclic peptides of protein N of SARS-CoV Urbani [1]: 0.7
- Binding of serum SARS-yellow to linear peptides of protein N of SARS-CoV Urbani [1]: 0.4
- Binding of serum SARS-yellow to looped/cyclic peptides of protein N of SARS-CoV Urbani [1]: 0.3
- Binding of Control Serum Blood-Bank to Looped peptides [2]: 0.7
- Binding of Control serum Blood-bank to linear peptides [2]: 0.5
- Binding of Control serum LUMC to linear peptides [2]: 0.6
- Binding of Control serum LUMC to looped peptides [2]: 0.7
- Binding of a rabbit serum to linear peptides of protein N of SARS-CoV Urbani (Rabbit serum linear peptides) [3]: 0.1
- Binding of a rabbit serum to looped/cyclic peptides of protein N of SARS-CoV Urbani (Rabbit serum looped peptides) [3]: 0.3
- Recognition of the peptide by antibody 03-018 [4]: recognized

Sequence: QPTVTLLPAADMDDF
- Binding of serum 1a to linear peptides of protein N of SARS-CoV Urbani [1]: 0.3
- Binding of serum 1a to looped/cyclic peptides of protein N of SARS-CoV Urbani [1]: 0.3
- Binding of serum 1b to linear peptides of protein N of SARS-CoV Urbani [1]: 0.2
- Binding of serum 1b to looped/cyclic peptides of protein N of SARS-CoV Urbani [1]: 0.2
- Binding of serum 2 to linear peptides of protein N of SARS-CoV Urbani [1]: 0.2
- Binding of serum 2 to looped/cyclic peptides of protein N of SARS-CoV Urbani [1]: 0.2
- Binding of serum 6 to linear peptides of protein N of SARS-CoV Urbani [1]: 0.2
- Binding of serum 6 to looped/cyclic peptides of protein N of SARS-CoV Urbani [1]: 0.1
- Binding of serum 37 to linear peptides of protein N of SARS-CoV Urbani [1]: 1.1
- Binding of serum 37 to looped/cyclic peptides of protein N of SARS-CoV Urbani [1]: 0.5
- Binding of serum 62 to linear peptides of protein N of SARS-CoV Urbani [1]: 0.7
- Binding of serum 62 to looped/cyclic peptides of protein N of SARS-CoV Urbani [1]: 0.3
- Binding of serum London to linear peptides of protein N of SARS-CoV Urbani [1]: 0.5
- Binding of serum London to looped/cyclic peptides of protein N of SARS-CoV Urbani [1]: 0.2
- Binding of serum SARS-green to linear peptides of protein N of SARS-CoV Urbani [1]: 1.9
- Binding of serum SARS-green to looped/cyclic peptides of protein N of SARS-CoV Urbani [1]: 0.4
- Binding of serum SARS-yellow to linear peptides of protein N of SARS-CoV Urbani [1]: 0.7
- Binding of serum SARS-yellow to looped/cyclic peptides of protein N of SARS-CoV Urbani [1]: 0.4
- Control Serum Blood-Bank Looped peptides [2]: 0.5
- Control serum Blood-bank linear peptides [2]: 0.7
- Control serum LUMC linear peptides [2]: 0.5
- Control serum LUMC looped peptides [2]: 0.5
- Binding of a rabbit serum to linear peptides of protein N of SARS-CoV Urbani (Rabbit serum linear peptides) [3]: 0.1
- Binding of a rabbit serum to looped/cyclic peptides of protein N of SARS-CoV Urbani (Rabbit serum looped peptides) [3]: 0.0
- Binding of antibody 03-018 to linear peptides of the N protein of SARS-CoV Urbani [4]: 0.1
- Binding of antibody 03-018 to looped/cyclic peptides of the N protein of SARS-CoV Urbani [4]: 0.2

Sequence: PKGFYAEGSRGGSQA
- Binding of serum 1a to linear peptide (PEPSCAN-ELISA) [1]: 0.3
- Binding of serum 1a to looped/cyclic peptides of protein N of SARS-CoV Urbani [1]: 0.3
- Binding of serum 1b to linear peptide (PEPSCAN-ELISA) [1]: 0.1
- Binding of serum 1b to looped/cyclic peptides of protein N of SARS-CoV Urbani [1]: 0.3
- Binding of serum 2 to linear peptide (PEPSCAN-ELISA) [1]: 0.2
- Binding of serum 2 to looped/cyclic peptides of protein N of SARS-CoV Urbani [1]: 0.3
- Binding of serum 6 to linear peptide (PEPSCAN-ELISA) [1]: 0.2
- Binding of serum 6 to looped/cyclic peptides of protein N of SARS-CoV Urbani [1]: 0.2
- Binding of serum 37 to linear peptide (PEPSCAN-ELISA) [1]: 0.6
- Binding of serum 37 to looped/cyclic peptides of protein N of SARS-CoV Urbani [1]: 0.4
- Binding of serum 62 to linear peptide (PEPSCAN-ELISA) [1]: 0.6
- Binding of serum 62 to looped/cyclic peptides of protein N of SARS-CoV Urbani [1]: 0.5
- Binding of serum London to linear peptide (PEPSCAN-ELISA) [1]: 0.5
- Binding of serum London to looped/cyclic peptides of protein N of SARS-CoV Urbani [1]: 0.3
- Binding of serum SARS-green to linear peptide (PEPSCAN-ELISA) [1]: 0.0
- Binding of serum SARS-green to looped/cyclic peptides of protein N of SARS-CoV Urbani [1]: 0.4
- Binding of serum SARS-yellow to linear peptide (PEPSCAN-ELISA) [1]: 0.5
- Binding of serum SARS-yellow to looped/cyclic peptides of protein N of SARS-CoV Urbani [1]: 0.2
- Binding of Control Serum Blood-Bank to Looped peptides [2]: 0.5
- Binding of Control serum Blood-bank to linear peptides [2]: 0.8
- Binding of Control serum LUMC to linear peptides [2]: 0.7
- Binding of Control serum LUMC to looped peptides [2]: 0.5
- Binding of a rabbit serum to linear peptides of protein N of SARS-CoV Urbani (Rabbit serum linear peptides) [3]: 0.1
- Binding of a rabbit serum to looped/cyclic peptides of protein N of SARS-CoV Urbani (Rabbit serum looped peptides) [3]: 0.1
- Binding of antibody 03-018 to linear peptides of the N protein of SARS-CoV Urbani [4]: 0.1
- Binding of antibody 03-018 to looped/cyclic peptides of the N protein of SARS-CoV Urbani [4]: 0.2
